Experimental data reported in patent US10017523B2, “NAMPT inhibitors and methods” (Genzyme Corporation, priority 2014, dated 2018).

Assays:
Recombinant NAMPT enzyme = target: T1, Recombinant NAMPT enzyme (Homo sapiens, UniProt P43490); assay: Inhibition of NAMPT enzymatic activity; format: biochemical
T1 construct: purchased MBL
Experimental: Recombinant NAMPT enzyme (MBL) was briefly pre-incubated in the absence or presence of inhibitor followed by addition of nicotinamide. Enzymatic reaction was allowed to proceed for 6 hours at 37° C. Reaction was terminated and NMN reaction product detected using the method as described in: Zhang R Y, Qin Y, Lv X Q, Wang P, Xu T Y, Zhang L, Miao C Y., Anal. Biochem. 2011 May 1; 412(1):18-25.
(§1) The 50% inhibitory concentration (IC50) is the concentration at which 50% of the maximal activity was inhibited.

primary human B cells = assay: Anti-proliferative activity on B cells (anti-IgM stimulated, CellTiterGlo); format: cell-based; conditions: B-cell, 72 h, anti-IgM 10 ug/ml
Experimental: (§2) Fresh primary human B cells obtained from Analytical Biological Services (Wilmington, Del.) were diluted to 1×10^^6 cells per ml in AIM-V medium (Invitrogen), and stimulated with anti-IgM (10 ug/ml) (KPL) in the absence or presence of inhibitor for 72 hours at 37° C./5% CO2 prior to viability determination using CellTiterGlo (Promega) per manufacturer's instruction.
as §1

primary human T cells = assay: Anti-proliferative activity on T cells (CD3/CD28 stimulated, CellTiterGlo); format: cell-based; conditions: T-cell, 72 h, CD3/CD28 beads
Experimental: as §2, with “human T” for “human B”, “with CD3/CD28 beads (Invitrogen)” for “with anti-IgM (10 ug/ml) (KPL)”
as §1

[1] = tested on: acute T-cell leukemia (JURKAT); assay: Anti-proliferative activity on JURKAT cell line; format: cell-based; conditions: Homo sapiens, 72 h, CellTiterGlo
Experimental: (§3) Leukemia/Lymphoma cell lines (ATCC) were diluted in vendor-recommended media and incubated in the absence or presence of inhibitor for 72 hours at 37° C./5% CO2 prior to viability determination using CellTiterGlo (Promega) per manufacturer's instruction. The human cell lines studied include acute T-cell leukemia (JURKAT), chronic myelogenous leukemia (K562), and B-cell acute lymphocytic leukemia (NALM6 and SUP-B15).

[2] = tested on: chronic myelogenous leukemia (K562); assay: Anti-proliferative activity on K562 cell line; format: cell-based; conditions: Homo sapiens, K562, 72 h, CellTiterGlo
Experimental: as §3

[3] = tested on: B-cell acute lymphocytic leukemia (NALM6); assay: Anti-proliferative activity on NALM6 cell line; format: cell-based; conditions: Homo sapiens, NALM-6, 72 h, CellTiterGlo
Experimental: as §3

[4] = tested on: B-cell acute lymphocytic leukemia (SUP-B15); assay: Anti-proliferative activity on SUP-B15 cell line; format: cell-based; conditions: Homo sapiens, SUP-B15, 72 h, CellTiterGlo
Experimental: as §3

Sup-B15 cells = assay: Mechanism of action: NMN rescue of viability; format: cell-based, human; conditions: 200 μM NMN, 72 hours
Experimental: Sup-B15 cells (ATCC) were incubated in media lacking or containing 200 μM nicotinamide mononucleotide (NMN) (Sigma) in the absence or presence of inhibitor for 72 hours at 37° C./5% CO2 prior to viability determination using CellTiterGlo (Promega) per manufacturer's instruction.

Sup-B15 cell extract = target: T2, Sup-B15 cell extract (Homo sapiens, UniProt P43490); assay: Chemical proteomics pull-down from Sup-B15 cell extract; format: binding; conditions: biotinylated derivative, streptavidin beads, elution with free compound, LC/MS
T2 construct: host or cells: Sup-B15 cells
Experimental: Chemical proteomics. Sup-B15 cell extract was incubated with a biotinylated derivative of 4-(1′-isopropyl-4-oxospiro[chroman-2,4′-piperidin]-6-yl)-N-((3-methylisoxazol-5-yl)methyl)benzamide, followed by collection of compound/protein complexes with streptavidin beads (Invitrogen). […] Following SDS-PAGE, one prominent band was excised and identified by LC/MS as NAMPT.

NALM6 leukemia model = assay: NALM6 leukemia study (survival); format: in vivo, female CB17SCID/Crl mice; conditions: i.p. twice daily for 35 days, compared with clofarabine
Experimental: 4-(1′-isopropyl-4-oxospiro[chroman-2,4′-piperidin]-6-yl)-N-((3-methylisoxazol-5-yl)methyl)benzamide was tested in the NALM6 leukemia model. […] 5×10^^6 NALM-6 cells were injected via tail vein into female CB17SCID/Crl mice (Charles River). One week later, 4-(1′-isopropyl-4-oxospiro[chroman-2,4′-piperidin]-6-yl)-N-((3-methylisoxazol-5-yl)methyl)benzamide was administered by i.p. injection twice daily for 35 days. Clofarabine was administered once daily by i.p. injection once daily for 5 days for four weeks. Study endpoint was survival time, and mice were sacrificed upon appearance of systemic signs of severe disease such as paralysis or cachexia.

HCT116 solid tumor model = assay: HCT116 tumor growth study; format: in vivo, Female athymic nude mice; conditions: oral twice daily
Experimental: Tumor Growth Study: Female athymic nude mice (Crl:NU(Ncr)-Foxn1nu, Charles River) (n=10/group) were injected with 5×10^6 HCT116 cells, and treatment was initiated at average tumor size of 100 mm^3. 4-(1′-isopropyl-4-oxospiro[chroman-2,4′-piperidin]-6-yl)-N-((3-methylisoxazol-5-yl)methyl)benzamide and vehicle control were administered orally twice daily for 8 days. Tumor size was measured twice weekly with calipers.
4-(1′-isopropyl-4-oxospiro[chroman-2,4′-piperidin]-6-yl)-N-((3-methylisoxazol-5-yl)methyl)benzamide was also tested in the HCT116 solid tumor model.

T1 sequence (P43490 whole entry): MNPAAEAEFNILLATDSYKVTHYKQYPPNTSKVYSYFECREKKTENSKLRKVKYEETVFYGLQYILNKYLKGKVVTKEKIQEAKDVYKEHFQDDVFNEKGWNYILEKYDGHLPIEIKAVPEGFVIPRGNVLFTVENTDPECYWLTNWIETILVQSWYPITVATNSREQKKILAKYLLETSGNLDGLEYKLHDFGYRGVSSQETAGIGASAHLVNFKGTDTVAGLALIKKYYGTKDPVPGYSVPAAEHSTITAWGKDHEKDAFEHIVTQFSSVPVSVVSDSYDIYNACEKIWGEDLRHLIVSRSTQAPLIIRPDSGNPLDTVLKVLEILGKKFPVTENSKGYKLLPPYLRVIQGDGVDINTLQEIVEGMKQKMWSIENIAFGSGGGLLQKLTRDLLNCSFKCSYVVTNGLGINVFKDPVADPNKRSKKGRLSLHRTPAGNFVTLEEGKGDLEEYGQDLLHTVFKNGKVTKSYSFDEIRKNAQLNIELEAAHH
T2 sequence (P43490 whole entry): as above

Cc1cc(CNC(=O)c2ccc(-c3ccc4c(c3)C(=O)CC3(CCN(C(C)C)CC3)O4)cc2)on1 [4-(1′-isopropyl-4-oxospiro[chroman-2,4′-piperidin]-6-yl)-N-((3-methylisoxazol-5-yl)methyl)benzamide]
inhibition of NAMPT enzyme activity (Recombinant NAMPT enzyme): potently inhibits NAMPT enzyme activity | IC50 (Recombinant NAMPT enzyme; 6 hours at 37° C., NMN product detected): 0.9 nM | IC50 (primary human B cells): 22.7 nM | IC50 (primary human T cells): 4380 nM | IC50 [1]: 17.9 nM | IC50 [2]: 68.1 nM | IC50 [3]: 15 nM | IC50 [4]: 2.44 nM | effect of NMN on anti-proliferative activity (Sup-B15 cells): counteracted by NMN | molecular target identified (Sup-B15 cell extract): nicotinamide phosphoribosyl transferase (NAMPT) | survival (NALM6 leukemia model): significant survival benefit in this xenograft model, in excess of the standard of care (clofarabine) | mortality in the treated group (HCT116 solid tumor model): 10% | persistence of tumor growth delay after dosing was stopped (HCT116 solid tumor model): persisted for at least one week after dosing was stopped | tumor growth (HCT116 solid tumor model): significant tumor growth delay
